# Target: MetAP-2 (Homo sapiens, UniProt P50579)
# Test: MetAP-2 activity measurement (coupled enzymatic reactions, Met-Arg-Ser substrate, dianisidine detection at 450 nm)
# Type: biochemical
# Conditions: Inhibition of MetAP-2; read-out: IC50 enzyme
# Method in brief: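 Coupled continuous assay with Met-Arg-Ser tripeptide substrate: released methionine oxidised by L-amino acid oxidase to give H2O2, which peroxidase uses to oxidise dianisidine, followed at 450 nm. Activity taken as slope of absorbance versus time over the visually linear region; dianisidine extinction coefficient converts to mol Met per time.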
# Sequence of MetAP-2 (P50579 whole entry, species assumed): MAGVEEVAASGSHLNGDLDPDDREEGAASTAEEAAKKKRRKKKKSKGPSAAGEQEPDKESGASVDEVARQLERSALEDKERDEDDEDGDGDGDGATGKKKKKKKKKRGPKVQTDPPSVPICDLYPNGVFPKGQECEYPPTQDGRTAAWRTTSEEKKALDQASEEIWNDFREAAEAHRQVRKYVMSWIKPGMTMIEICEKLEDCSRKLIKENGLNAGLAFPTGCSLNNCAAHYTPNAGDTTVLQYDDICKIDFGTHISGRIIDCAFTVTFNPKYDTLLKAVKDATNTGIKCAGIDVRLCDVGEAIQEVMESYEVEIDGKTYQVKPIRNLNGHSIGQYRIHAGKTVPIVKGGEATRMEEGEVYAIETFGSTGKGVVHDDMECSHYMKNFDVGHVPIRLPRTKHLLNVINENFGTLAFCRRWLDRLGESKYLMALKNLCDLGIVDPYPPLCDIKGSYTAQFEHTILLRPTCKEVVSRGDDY
row,IC50 [nM],Compound
1,10 to 1000,"CC(=O)NS(=O)(=O)c1ccc(N2CCC(O)(C(=O)NCc3cc(F)cc(Cl)c3)C2=O)cc1 (stereo not drawn) [B118, N-(3-Chloro-5-fluorobenzyl)-1-(4-acetylsulfamoylphenyl)-3-hydroxy-2-oxopyrrolidine-3-carboxamide]"
2,10 to 1000,"NC(=O)Cn1cc(N2CC[C@](O)(C(=O)NCc3cc(F)cc(Cl)c3)C2=O)cn1 [B119, N-(3-Chloro-5-fluorobenzyl)-(S)-1-(1-carbamoylmethyl-1H-pyrazol-4-yl)-3-hydroxy-2-oxo-pyrrolidine-3-carboxamide]"
3,10 to 1000,"O=C(NCCO)c1cc2cc(N3CC[C@](O)(C(=O)NCc4cc(F)cc(Cl)c4)C3=O)ccc2[nH]1 [B121, N-(2-hydroxyethyl)-5-[(S)-3-(3-chloro-5-fluorobenzyl-carbamoyl)-3-hydroxy-2-oxo-pyrrolidin-1-yl]-1H-indole-2-carboxamide]"
4,10 to 1000,"CN1CCN(C(=O)c2cc3cc(N4CC[C@](O)(C(=O)NCc5cc(F)cc(Cl)c5)C4=O)ccc3[nH]2)CC1 [B122, N-(3-Chloro-5-fluorobenzyl)-(S)-3-hydroxy-1-[2-(4-methyl-piperazin-1-carbonyl)-1H-indol-5-yl]-2-oxopyrrolidine-3-carboxamide]"
5,10 to 1000,"CC(C)(C)OC(=O)N1CCN(C(=O)c2cc3cc(N4CC[C@](O)(C(=O)NCc5cc(F)cc(Cl)c5)C4=O)ccc3[nH]2)CC1 [B123, tert-Butyl 4-{5-[(S)-3-(3-chloro-5-fluorobenzylcarbamoyl)-3-hydroxy-2-oxopyrrolidin-1-yl]-1H-indol-2-carbonyl}-piperazine-1-carboxylate]"
6,10 to 1000,"O=C1CCc2c(ccc(N3CCC(O)(C(=O)NCc4cc(F)cc(Cl)c4)C3=O)c2F)N1 (stereo not drawn) [B124, N-(3-Chloro-5-fluorobenzyl)-1-(5-fluoro-2-oxo-1,2,3,4-tetrahydroquinolin-6-yl)-3-hydroxy-2-oxopyrrolidine-3-carboxamide]"
7,10 to 1000,"O=C(c1cc2cc(N3CC[C@](O)(C(=O)NCc4cc(F)cc(Cl)c4)C3=O)ccc2[nH]1)N1CCNCC1 [B126, N-(3-Chloro-5-fluorobenzyl)-(S)-3-hydroxy-2-oxo-1-[2-(piperazin-1-carbonyl)-1H-indol-5-yl]-pyrrolidine-3-carboxamide]"
8,10 to 1000,"Nc1ccccc1NC(=O)c1cc2cc(N3CC[C@](O)(C(=O)NCc4cc(F)cc(Cl)c4)C3=O)ccc2[nH]1 [B129, N-(2-Aminophenyl)-5-[(S)-3-(3-chloro-5-fluorobenzyl-carbamoyl)-3-hydroxy-2-oxo-pyrrolidin-1-yl]-1H-indole-2-carboxamide]"
9,10 to 1000,"NCCNC(=O)c1cc2cc(N3CC[C@](O)(C(=O)NCc4cc(F)cc(Cl)c4)C3=O)ccc2[nH]1 [B132, N-(2-Aminoethyl)-5-[(S)-3-(3-chloro-5-fluorobenzyl-carbamoyl)-3-hydroxy-2-oxo-pyrrolidin-1-yl]-1H-indole-2-carboxamide]"
10,10 to 1000,"O=C(NCc1cc(F)cc(Cl)c1)[C@@]1(O)CCN(c2ccc3[nH]c(-c4nc5ccccc5[nH]4)cc3c2)C1=O [B133, N-(3-Chloro-5-fluorobenzyl)-(S)-1-[2-(1H-benzoimidazol-2-yl)-1H-indol-5-yl]-3-hydroxy-2-oxo-pyrrolidine-3-carboxamide]"
11,10 to 1000,"NNC(=O)c1cc2cc(N3CC[C@](O)(C(=O)NCc4cc(F)cc(Cl)c4)C3=O)ccc2[nH]1 [B134, N-(3-Chloro-5-fluorobenzyl)-(S)-1-(2-hydrazinocarbonyl-1H-indol-5-yl)-3-hydroxy-2-oxo-pyrrolidine-3-carboxamide]"
12,10 to 1000,"Cc1noc(-c2cc3cc(N4CC[C@](O)(C(=O)NCc5cc(F)cc(Cl)c5)C4=O)ccc3[nH]2)n1 [B135, N-(3-Chloro-5-fluorobenzyl)-(S)-3-hydroxy-1-[2-(3-methyl-1,2,4-oxadiazol-5-yl)-1H-indol-5-yl]-2-oxopyrrolidine-3-carboxamide]"
13,10 to 1000,"O=C(NCc1cc(F)cc(Cl)c1)[C@@]1(O)CCN(OCc2ccccc2)C1=O [B136, N-(3-Chloro-5-fluorobenzyl)-(S)-1-benzyloxy-3-hydroxy-2-oxo-pyrrolidine-3-carboxamide]"
14,> 10000,"O=C(NCc1cc(F)cc(Cl)c1)[C@]1(O)CCN(OCc2ccccc2)C1=O [B138, N-(3-Chloro-5-fluorobenzyl)-(R)-1-benzyloxy-3-hydroxy-2-oxo-pyrrolidine-3-carboxamide]"
15,10 to 1000,"O=C(NCc1cc(F)cc(Cl)c1)[C@@]1(O)CCN(c2cnc3[nH]cc(C(F)(F)F)c3c2)C1=O [B139, N-(3-Chloro-5-fluorobenzyl)-(S)-3-hydroxy-2-oxo-1-(3-trifluoro-methyl-1H-pyrrolo[2,3-b]pyridin-5-yl)pyrrolidine-3-carboxamide]"
16,> 10000,"O=C(NCc1cc(F)cc(Cl)c1)[C@]1(O)CCN(c2cnc3[nH]cc(C(F)(F)F)c3c2)C1=O [B140, N-(3-Chloro-5-fluorobenzyl)-(R)-3-hydroxy-2-oxo-1-(3-trifluoromethyl-1H-pyrrolo-[2,3-b]pyridin-5-yl)pyrrolidine-3-carboxamide]"
17,10 to 1000,"CNS(=O)(=O)c1ccc(N2CC[C@](O)(C(=O)NCc3cc(F)cc(Cl)c3)C2=O)cc1 [B141, N-(3-Chloro-5-fluorobenzyl)-(S)-3-hydroxy-1-(4-methylsulfamoyl-phenyl)-2-oxopyrrolidine-3-carboxamide]"

row,Compound,IC50 [nM]
1,"(S)-3-(1,1-Dioxo-1l6- thiomorpholine-4-carbonyl)-3- hydroxy-1-phenylpyrrolidin-2-one [A56]",> 10000

# Source: patent US10093623B2, “Cyclic amides as MetAP-2 inhibitors” (MERCK PATENT GmbH, priority 2012, dated 2018)
